pEC50: −log10 of the molar value. Where “and” joins values, the source holds several entries; their conditions need not be identical. Identical values can stand only once.
What was measured:
[1] = Clinical safety and tolerability, dose-limiting toxicities (NCT03536728); type: in vivo
Text: Clinical Trial Outline. […] All solid tumor types are eligible for the trial. […] DFMO was delivered orally twice daily in gel capsules.
These DLTs involved vomiting, diarrhea and nausea, and inferred a potential dual drug targeting of the gastrointestinal (GI) tract in these patients. One patient experienced severe dehydration, requiring hospitalization. A similar observation was made in dogs in Aminex's 28-day toxicological testing. […] The clinical observations and the data obtained in dog studies, together, support the hypothesis that combined oral drug dosing levels and DFMO targeting of the GI tract are causing the intolerance.
In cohorts before Part 2, Cohort 4, 14 adults were treated at 1,200 mg or higher of AMXT 1501 daily, either once daily or BID, with no DLTs. A total of 18 patients were treated at 800 mg AMXT 1501 or higher daily with no DLTs. These patients included a couple of adult patients where Cmax values above 1,000 ng/mL AMXT 1501 plasma levels were observed, again with no DLTs observed.

[2] = tested on: spermidine; assay: MALDI-FTICR imaging quantitation of PD marker spermidine in whole-body sections of Th-MYCN mice; type: in vivo, mouse; details: for Quantitation of spermidine in the whole-body section: Th-MYCN mice, one value per animal
Experimental: (§1) The lower limit of detection based on the calibration curve using labeled spermidine was 0.80 μg/g, while for spermine it was 1.10 μg/g.

[3] = tested on: spermine; assay: MALDI-FTICR imaging quantitation of PD marker spermine in whole-body sections of Th-MYCN mice; type: in vivo, mouse
Experimental: as §1

[4] = mouse, in vivo
[5] = tested on: four tumor cell lines; details: average, growth of four cell lines in culture; read-out: in vitro EC50 against cancer cells; cited from earlier work
[6] = in vivo; details: BALB/c, mouse, 2.5 mg/kg
[7] = in vivo; details: male, Th-MYCN, mouse
Experimental: Male Th-MYCN mice, approximately 5-6 weeks of age, with spontaneous neuroblastoma tumor development commenced treatment according to Table 6.1 when tumors were approximately 5 mm in size. […] Time point: three treatments, cull 24 hours after last treatment in the morning.
Sample Preparation. Animals were euthanized on the morning of the 4th day, after three days of treatment and shaved, and then the carcasses were frozen. Tissues stored at −80° C. were placed inside the cryostat. The temperature of the cryostat was maintained around −20° C. and −40° C. 20-am tissue sections in the sagittal plane going through the left eye were obtained for each carcass. Tissue sections were mounted directly on indium tin oxide (ITO) slides.
Tissue sections on ITO slides were placed in a desiccator for 15 minutes before matrix deposition. An image of the slides was then acquired with a scanner to synchronize positions of the tissue sections with the target of the laser.
Dilution series of the test items were prepared in water from the stock solutions. […] A spot of pure solvent was added as a negative control. Slides were then placed in a desiccator for 15 minutes before MALDI matrix deposition. The control liver tissue consisted of a liver homogenate spiked with an olanzapine standard at 40 g/g of tissue. Sections of the liver homogenate were prepared and added on each ITO slide in order to monitor the signal of the FTICR through the different acquisitions and thus validate the comparison between slides.
For AMXT 1501, 2,5-dihydroxybenzoic acid (DHB) at 40 mg/ml in 1:1 MeOH/H2O with 1% trifluoroacetic acid (TFA) and 25 nM of ^13C4-AMXT 1501 was sprayed on the samples with an automatic sprayer (TM-Sprayer, HTX-Imaging).
The mass spectrometry imaging (MSI) acquisitions were performed using the parameters in Table 6.2 with a data reduction parameter set at 95%. MSI data were acquired and analyzed with FlexImaging 4.1 (Bruker Daltonics), Data Analysis 4.0 (Bruker Daltonics) and Multimaging™ 1.2.2 (ImaBioTech).
Intensity scales representing the molecular signal were adjusted for each image to discriminate the noise from the molecular signal but also to give the best visualization of the signal across the sections. […] Convolution step was performed on the original images using a normalized uniform kernel, which averages the values around a position. The kernel size was manually optimized for the analysis, minimizing the background noise. Based on the MSI data set on the tissue sections and the dilution series, the quantitation of the test items was performed with the IS approach. A correlation between the calibration curve and the signal obtained on the tissues was performed in order to determine the concentration of the test items per histological structure in g/g of tissue and μM.

[8] = AMXT 1501 level in tumor biopsy of a melanoma patient; details: male, human, in vivo
[9] = raw determination, individual Th-MYCN mice, 96 h
[10] = raw determination, treatment group average, 96 h

In the case of `CCCCCCCCCCCCCCCC(=O)NCCCC[C@@H](N)C(=O)NCCCNCCCCNCCCN` [AMXT 1501, D-lys(palmitoyl)-spermine], the dose-limiting toxicities ([1]; 14 adults at 1,200 mg or higher of AMXT 1501 daily, QD or BID, cohorts before Part 2 Cohort 4) was “no DLTs”, the dose-limiting toxicities ([1]; 18 patients at 800 mg AMXT 1501 or higher daily) was “no DLTs” and the “Quantitation of spermidine in the whole-body section” value (“Quantitation of spermidine” below) ([2]; Eye) was 3.21 µM. For the same compound, the “Quantitation of spermidine” value ([2]; Intestine contents) was 6.36 µM and 9.59 µM, the “Quantitation of spermidine” value ([2]; Stomach contents) was 2.05 µM and 0.00 µM and the “Quantitation of spermidine” value ([2]; Tumor) was 1.32 µM. The “Quantitation of spermidine” value ([2]; White fat) was 5.26 µM, the “spermidine level in tumor, comparison of groups” value ([2]; mouse, in vivo) was “lowest levels” and the “Spermidine concentration in tumor, Values” [2, 9] was “BLOD and 1.32 μM”. For the same compound, the “Spermidine concentration in tumor, Average” value [2, 10] was 1.32 µM, the spermidine in eye ([2]; vehicle 9.14 μM) was 3 µM and the “Quantitation of spermine in the whole-body section” value ([3]; Eye, Th-MYCN mice, one value per animal) was 4.19 µM and 5.03 µM. For the same compound, the spermine in lung ([3]; group average) was “low”, the “spermine level in tumor, comparison of groups” value ([3]; mouse, in vivo) was “lowest levels” and the “Spermine concentration in tumor, Value” [3, 9] was “BLOD”. For the same compound, the “Spermine concentration in tumor, Average” value [3, 10] was “BLOD”, the spermine in eye ([3]; vehicle 17.6 μM) was “around 5 μM” and the “effect of DFMO on AMXT 1501 tumor retention” value [4] was “no effect”. The “tumor AUC, AMXT 1501” value [4] was 152,000 hr*ng/mL, the “tumor AUC0-∞, AMXT 1501” value ([4]; sc, 2.5 mg/kg) was 138,000 hr*ng/mL and the pEC50 [5] was 7.29. For the same compound, the AUC ([6]; plasma, sc) was 8270 ng·h/mL, the AUC(0-inf) ([6]; plasma, sc) was 8890 ng·h/mL and the Cmax ([6]; plasma, sc) was 978 ng/mL. The Kp ([6]; tumor and plasma, sc) was 15.5, the Kp at 72 h ([6]; tumor and plasma, sc) was 894 and the Kp ([6]; tumor and plasma, subcutaneous) was 18. It also gave a concentration at 72 h ([6]; tumor, subcutaneous) of ~1000 ng/mL, a concentration at 96 h ([7]; brown fat, sc, 2.5 mg/kg) of 8330 ng/g and a concentration at 96 h ([7]; cardiac blood, sc, 2.5 mg/kg) of 8370 ng/g. It also gave a concentration at 96 h ([7]; eye, sc, 2.5 mg/kg) of 9300 ng/g, a concentration at 96 h ([7]; intestine contents, sc, 2.5 mg/kg) of 8470 ng/g and a concentration at 96 h ([7]; intestine wall, sc, 2.5 mg/kg) of 9000 ng/g. For the same compound, the concentration at 96 h ([7]; intestine wall, subcutaneous, 2.5 mg/kg) was 11400 ng/g, the concentration at 96 h ([7]; kidney, sc, 2.5 mg/kg) was 5640 ng/g and the concentration at 96 h ([7]; kidney, subcutaneous, 2.5 mg/kg) was 12100 ng/g. It also gave a concentration at 96 h ([7]; liver, sc, 2.5 mg/kg) of 8870 ng/g, a concentration at 96 h ([7]; liver, subcutaneous, 2.5 mg/kg) of 9530 ng/g and a concentration at 96 h ([7]; lung, sc, 2.5 mg/kg) of 14500 ng/g. For the same compound, the concentration at 96 h ([7]; lung, subcutaneous, 2.5 mg/kg) was 17000 ng/g, the concentration at 96 h ([7]; myocardium, sc, 2.5 mg/kg) was 8440 ng/g and the concentration at 96 h ([7]; myocardium, subcutaneous, 2.5 mg/kg) was 9590 ng/g. The concentration at 24 h ([7]; organs (range across organs), subcutaneous, 2.5 mg/kg) was 3360 ng/g to 17000 ng/g and 5.9 µM to 29.9 µM, the concentration at 24 h ([7]; organs, range from intestine contents to lung, subcutaneous, 2.5 mg/kg) was 3360 to 17000 ng/g and the concentration at 96 h ([7]; pancreas, sc, 2.5 mg/kg) was 8430 ng/g. It also gave a concentration at 96 h ([7]; pancreas, subcutaneous, 2.5 mg/kg) of 8540 ng/g, a concentration at 96 h ([7]; spleen, subcutaneous, 2.5 mg/kg) of 12900 ng/g and a concentration at 96 h ([7]; stomach contents, sc, 2.5 mg/kg) of 8800 ng/g. For the same compound, the concentration at 96 h ([7]; stomach contents, subcutaneous, 2.5 mg/kg) was 8480 ng/g, the concentration at 96 h ([7]; stomach wall, sc, 2.5 mg/kg) was 8550 ng/g and the concentration at 96 h ([7]; stomach wall, subcutaneous, 2.5 mg/kg) was 8810 ng/g. It also gave a concentration at 96 h ([7]; testis, sc, 2.5 mg/kg) of 9160 ng/g, a concentration at 96 h ([7]; testis, subcutaneous, 2.5 mg/kg) of 9820 ng/g and a concentration at 96 h ([7]; thymus, sc, 2.5 mg/kg) of 10700 ng/g. The concentration at 96 h ([7]; thymus, subcutaneous, 2.5 mg/kg) was 13900 ng/g, the concentration at 96 h ([7]; tumor, sc, 2.5 mg/kg) was 10000 ng/g and the concentration at 24 h ([7]; tumor, subcutaneous) was 12.7 µM. For the same compound, the concentration at 24 h ([7]; tumor, subcutaneous, 2.5 mg/kg) was 7230 ng/mL and 10000 ng/g and 17.6 µM and the Kp [8] was 14.6.
